Results reported in patent EP4635951A1, “SALT-TYPE GLP-1 RECEPTOR AGONIST, CRYSTAL FORM THEREOF, PREPARATION METHOD THEREFOR, PHARMACEUTICAL COMPOSITION THEREOF, AND USE THEREOF” (Hangzhou Zhongmeihuadong Pharmaceutical Co., Ltd., priority 2022, dated 2024).
In brackets after ≈: the same amount, converted by molar mass.

Tests used:
Human GLP-1R = molecular target: T1, Human GLP-1R (Homo sapiens, UniProt P43220); experiment: GLP-1R agonistic activity, HTRF cAMP assay in 293A GFP-GLP-1R cells; type: cell-based; settings: result in words
T1 construct: expressed in transfected cells; host or cells: 293A cells stably expressing GLP-1R-GFP
Excerpt: The method was a competitive immunoassay.

Dynamic solubility = settings: for Dynamic solubility in water: 37°C±2°C
Equilibrium solubility = type: physicochemical; settings: 37°C
Description: After 24 hours, samples were taken. The samples were centrifuged for separation, and the supernatant after filtration was used for solubility determination.

Hygroscopicity by DVS = type: physicochemical; settings: 25°C, 80%RH
[1] = Solid-state stability, long-term and accelerated conditions; type: physicochemical; settings: for Purity / purity decrease: 10 days
Excerpt: The free Compound I was in a crystalline form, and had the XRPD pattern indicated by the arrow in Figure 50.

[2] = High-temperature stability test; type: physicochemical
High-humidity stability = type: physicochemical
Pressure stability = type: physicochemical
[3] = Suspension competition tests between Crystal Form A and Crystal Form P; type: physicochemical; settings: room temperature and 50°C
Description: The suspensions of Compound Z that had been equilibrated for 2 hours under the corresponding temperature and solvent conditions were filtered to obtain saturated solutions of Compound Z under different temperature and solvent conditions, and then solid mixtures of Crystal Forms A and P of Compound Z were added. After the suspension competition was carried out for 1 day, the solids were separated for XRPD characterization.

[4] = Water activity stability of crystal form; type: physicochemical
[5] = FaSSGF, 37 °C, fassgf or other biorelevant, thermodynamic from solid
[6] = fassif, 37 °C, thermodynamic from solid
[7] = listed as Compound I in the amorphous form

T1 sequence (P43220 24-463): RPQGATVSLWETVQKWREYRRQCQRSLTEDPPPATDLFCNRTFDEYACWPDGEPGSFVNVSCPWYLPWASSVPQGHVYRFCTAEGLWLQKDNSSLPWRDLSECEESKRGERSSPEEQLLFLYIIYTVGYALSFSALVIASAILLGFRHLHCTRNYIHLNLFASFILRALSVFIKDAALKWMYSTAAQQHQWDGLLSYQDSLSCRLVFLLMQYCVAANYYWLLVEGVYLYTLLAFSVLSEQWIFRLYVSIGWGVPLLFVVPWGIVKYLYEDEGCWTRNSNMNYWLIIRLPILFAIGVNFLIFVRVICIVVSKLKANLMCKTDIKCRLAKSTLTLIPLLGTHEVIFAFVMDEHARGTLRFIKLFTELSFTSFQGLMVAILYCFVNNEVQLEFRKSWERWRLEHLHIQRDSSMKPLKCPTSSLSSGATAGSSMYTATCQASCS

For O=C(O)c1ccc2nc(CN3CCC(c4cccc(OCc5ccc(C6COC6)cc5F)n4)CC3)n(C[C@@H]3CCO3)c2c1 [Compound I, (S)-2-((4-(6-((2-fluoro-4-(oxetan-3-yl)benzyl)oxy)pyridin-2-yl)piperidin-1-yl)methyl)-1-(oxetan-2-ylmethyl)-1H-benzo[d]imidazole-6-carboxylic acid], the “agonistic effect on GLP-1R” value (Human GLP-1R) was “strong agonistic effect”, the solubility at 1 h (physchem; [5]) was 100 µg/mL (≈ 170 µM) and the solubility at 2 h (physchem; [5]) was 90 µg/mL (≈ 153 µM). The solubility at 4 h (physchem; [5]) was 110 µg/mL (≈ 188 µM), the solubility at 24 h (physchem; [5]) was 100 µg/mL (≈ 170 µM) and the solubility at 1 h (physchem; [6]) was 40 µg/mL (≈ 68.2 µM). The solubility at 4 h (physchem; [6]) was 120 µg/mL (≈ 205 µM), the solubility at 24 h (physchem; [6]) was 210 µg/mL (≈ 358 µM) and the “XRPD of Residual Solid” value (Dynamic solubility; FaSSGF, 1 h, listed as Free Compound I) was “Crystal Form A of the hydrochloride of Compound I”. For the same compound, the “XRPD of Residual Solid” value (Dynamic solubility; FaSSGF, 2 h, listed as Free Compound I) was “Crystal Form A of the hydrochloride of Compound I”, the “Whether the crystal form changed” value (Dynamic solubility; FaSSIF, 2 h) was “YES” and the “XRPD of Residual Solid” value (Dynamic solubility; FaSSIF, 2 h) was “Crystal Form A of Compound I”. For the same compound, the “Dynamic solubility in water” value (Dynamic solubility; FaSSIF, 2 h, listed as Free Compound I) was 70 µg/mL, the “Whether the crystal form changed” value (Dynamic solubility; FaSSIF, 4 h) was “YES” and the “XRPD of Residual Solid” value (Dynamic solubility; FaSSIF, 4 h) was “Crystal Form A of Compound I”. For the same compound, the “Whether the crystal form changed” value (Dynamic solubility; FaSSIF, 24 h) was “YES”, the “XRPD of Residual Solid” value (Dynamic solubility; FaSSIF, 24 h) was “Crystal Form A of Compound I” and the “Whether the crystal form changed” value (Dynamic solubility; H2O (water), 1 h) was “YES”. For the same compound, the “XRPD of Residual Solid” value (Dynamic solubility; H2O (water), 1 h) was “Crystal Form A of Compound I”, the “Dynamic solubility in water” value (Dynamic solubility; H2O (water), 4 h, listed as Free Compound I) was 30 µg/mL and the “Dynamic solubility in water” value (Dynamic solubility; H2O (water), 24 h, listed as Free Compound I) was 30 µg/mL.

In the case of O=C(O)c1ccc2nc(CN3CCC(c4cccc(OCc5ccc(C6COC6)cc5F)n4)CC3)n(C[C@@H]3CCO3)c2c1 [Amorphous form of Compound I], the solubility thermodynamic at 24 h (Equilibrium solubility; fassif, FaSSIF (fasted-state simulated intestinal fluid)) is reported as 150 µg/mL (≈ 256 µM), the solubility thermodynamic at 24 h (Equilibrium solubility; fessif, FeSSIF (fed-state simulated intestinal fluid)) is reported as 800 µg/mL (≈ 1360 µM) and the solubility thermodynamic at 24 h (Equilibrium solubility; purified water, H2O (purified water)) is reported as 430 µg/mL (≈ 733 µM). For the same compound, the solubility thermodynamic at 24 h (Equilibrium solubility; sgf (simulated gastric fluid)) was 410 µg/mL (≈ 699 µM), the hygroscopicity class (Hygroscopicity by DVS; [7]) was “hygroscopic (a weight gain of 2%-15% indicates hygroscopic)” and the “weight gain (water absorbed)” value (Hygroscopicity by DVS; [7]) was 4.029%.

Compound O=C(O)c1ccc2nc(CN3CCC(c4cccc(OCc5ccc(C6COC6)cc5F)n4)CC3)n(C[C@@H]3CCO3)c2c1 [Crystal Form A of Compound Z] has a solubility thermodynamic at 24 h (Equilibrium solubility; FaSSIF (fasted-state simulated intestinal fluid)) of 1190 µg/mL (≈ 2030 µM), a solubility thermodynamic at 24 h (Equilibrium solubility; FeSSIF (fed-state simulated intestinal fluid)) of 1170 µg/mL (≈ 1990 µM) and a solubility thermodynamic at 24 h (Equilibrium solubility; H2O (purified water)) of 1940 µg/mL (≈ 3310 µM). The solubility thermodynamic at 24 h (Equilibrium solubility; SGF (simulated gastric fluid)) was 1000 µg/mL (≈ 1700 µM), the hygroscopicity class (Hygroscopicity by DVS) was “slightly hygroscopic (a weight gain of 0.2%-2% indicates slightly hygroscopic)” and the “weight gain (water absorbed)” value (Hygroscopicity by DVS) was 1.696%. The Purity ([1]; 25°C/60%RH) was 97.38 % Area, the Purity ([1]; 40°C/75%RH) was 97.35 % Area and the “initial purity” value ([1]; HPLC, before storage) was 97.41 % Area. For the same compound, the purity decrease ([1]; accelerated conditions (40°C/75%RH)) was “no obvious decrease”, the purity decrease ([1]; long-term conditions (25°C/60%RH)) was “no obvious decrease” and the “purity decrease after 1 day” value ([2]; 60°C, 1 day) was “no obvious decrease”. For the same compound, the “purity after 1 day” value ([2]; HPLC purity (% area), 60°C, 1 day) was 97.34%, the initial purity ([2]; HPLC purity (% area), before 60°C) was 97.41% and the purity decrease (High-humidity stability; 90%RH, 10 days) was “no obvious decrease”. For the same compound, the initial purity (High-humidity stability; HPLC purity (% area), before high humidity) was 97.41%, the purity decrease (Pressure stability; 1000 Mpa, 5 minutes) was “no obvious decrease” and the initial purity (Pressure stability; HPLC purity (% area), before pressing) was 97.31%. The “thermodynamic stability relative to Crystal Form P” value [3] was “thermodynamically more stable”, the “water activity aw at which the crystal form is stable” value [4] was no more than 0.388 and the solubility at 1 h (physchem; [5]) was 40 µg/mL (≈ 68.2 µM). It also gave a solubility at 2 h (physchem; [5]) of 140 µg/mL (≈ 239 µM), a solubility at 4 h (physchem; [5]) of 120 µg/mL (≈ 205 µM) and a solubility at 2 h (physchem; fassif) of 130 µg/mL (≈ 222 µM). It also gave a solubility at 1 h (physchem; [6]) of 130 µg/mL (≈ 222 µM), a solubility at 4 h (physchem; [6]) of 110 µg/mL (≈ 188 µM) and a solubility at 24 h (physchem; [6]) of 280 µg/mL (≈ 477 µM). The solubility at 1 h (physchem; water) was 5500 µg/mL (≈ 9380 µM), the solubility at 2 h (physchem; water) was 1380 µg/mL (≈ 2350 µM) and the solubility (physchem; water, 37 °C, fassgf or other biorelevant, thermodynamic from solid) was 60 µg/mL (≈ 102 µM). For the same compound, the “Whether the crystal form changed” value (Dynamic solubility; FaSSGF, 1 h) was “YES”, the “XRPD of Residual Solid” value (Dynamic solubility; FaSSGF, 1 h) was “Amorphous” and the “Whether the crystal form changed” value (Dynamic solubility; FaSSGF, 2 h) was “YES”. For the same compound, the “XRPD of Residual Solid” value (Dynamic solubility; FaSSGF, 2 h) was “Amorphous”, the “Whether the crystal form changed” value (Dynamic solubility; FaSSGF, 4 h) was “YES” and the “XRPD of Residual Solid” value (Dynamic solubility; FaSSGF, 4 h) was “Crystal Form A of the hydrochloride of Compound I”. The “Whether the crystal form changed” value (Dynamic solubility; FaSSGF, 24 h) was “YES”, the “XRPD of Residual Solid” value (Dynamic solubility; FaSSGF, 24 h) was “Crystal Form A of the hydrochloride of Compound I” and the “Whether the crystal form changed” value (Dynamic solubility; FaSSIF, 1 h) was “YES”. The “XRPD of Residual Solid” value (Dynamic solubility; FaSSIF, 1 h) was “Crystal Form A of Compound I”, the “Whether the crystal form changed” value (Dynamic solubility; H2O (water), 2 h) was “YES” and the “XRPD of Residual Solid” value (Dynamic solubility; H2O (water), 2 h) was “Crystal Form A of Compound I”. The “Whether the crystal form changed” value (Dynamic solubility; H2O (water), 4 h) was “YES”, the “XRPD of Residual Solid” value (Dynamic solubility; H2O (water), 4 h) was “Crystal Form A of Compound I” and the “Dynamic solubility in water” value (Dynamic solubility; H2O (water), 4 h, 240 min) was 1230 µg/mL. The “Whether the crystal form changed” value (Dynamic solubility; H2O (water), 24 h) was “YES”, the “XRPD of Residual Solid” value (Dynamic solubility; H2O (water), 24 h) was “Crystal Form A of Compound I” and the “Dynamic solubility in water” value (Dynamic solubility; H2O (water), 24 h, 1440 min) was 1330 µg/mL.
